According to US8367620B2, “Peptidic growth hormone secretagogues analog compounds and preparations thereof” (Centro de Ingenieria Genetica y Biotecnologia, priority 2006, dated 2013):
Where two headings read alike, the source gives them in different places. Where a SMILES comes first, the peptide text is derived from it. Bridges are numbered along the chain shown (N, C = ends). Where no end group is shown, it is not given here. [ ]: non-standard residue; d: D form. d2Nal = N[C@H](Cc1ccc2ccccc2c1)C(=O)O

Key:
[1] = test system: PC12 cells; assay type: cell-based
Description: PC12 cells were stored in 75 cm^2 culture flasks on DMEM containing 5% bovine foetal serum and 10% horse serum, with 50 μg/ml gentamicin. Cells were incubated at 37° C. in 5% CO2. To induce differentiation cells were transferred at a density of 1×10^4 to polylysine covered 96 well plates in NGF supplemented DMEM media for 7 days, with medium replacement every 2-3 days. After differentiation cells were incubated with peptidic GHS analog compounds, at different concentrations for 72 h. Cell survival and proliferation was determined using the Promega non-radioactive cytotoxicity proliferation assay, Cell Titer 96, based in the conversion of 3-(4,5-dimethylthiazole-2-yl)-2,5-diphenyltetrazolium bromide (MTT) in to a spectrophotometrically detectable product. After deprivation of NGF medium is removed and 15 μl of the DMEM dissolved dye is added, after 4 hours of 37° C. incubation 100 μl of the stopping solution is added and absorbance is measured at 570 nm

[2] = test system: primary cultures of granular cerebellum cells; assay type: cell-based, Wistar rats
Description: Primary cultures of granular cerebellum cells were obtained from 7-9 days Wistar rats. After a rapid dissection, rat cerebellums were submerged in a cold solution and meningeal membranes were removed, each organ was transferred to a 2-3 ml fresh medium solution and finely sliced. Cells were dissociated using a Pasteur pipette and filtered through a nylon […] membrane (Falcon, Franklin Lakes, N.J.). The number of viable cells was determined by cell counting in a hematocytometer with tripan blue as a marker. Cells were cultured on polylysine covered 96 well plates at a density of 6250 cells in […] final volume. Cultures were kept at 37° C. in 5%. CO2 after 24 h, 10 μM of cytosine arabinofuranose (AraC; Sigma) was added to inhibit the proliferation of non-neuronal cells. The capacity of neural damage prevention was tested adding 500 μM hydrogen peroxide in different concentrations of peptidic GHS analog compounds, Cell survival was determined using the Promega non-radioactive cytotoxicity proliferation assay, Cell Titer 96 (Promega).

[3] = test system: IGF-I mRNA; experiment: IGF-I mRNA in liver and GH level of intraperitoneally injected tilapias; assay type: in vivo, tilapia; conditions: liver of intraperitoneally injected tilapias
Description: IGF-I mRNa was determined in the liver of intraperitoneally injected tilapias monitoring also the GH level time course, showing the peptidic GHS analog compounds as able to stimulate in fish the GH levels in the bloodstream and at incrementing the IGF-I mRNA levels after the injection of the compounds as shown in table 4.

[4] = test system: tilapias; experiment: Growth acceleration on juvenile tilapias treated intraperitoneally; assay type: in vivo; conditions: juvenile tilapia, ip 0.1 μg/g twice a week, three weeks
Description: The compounds were dissolved in a sodium phosphate (PBS) buffer solution and injected twice a week, during three weeks at 0.1 μg/g of humid fish weight (gbw). Compounds were applied individually to a group of 10 male tilapias with an average weight of 60.41±10.36 g and a control group with an average weight of 60.58±19.67 g was receiving PBS only as a control, measuring the average weight every week, all animals in the experiment were labelled with microchips (Stoelting Co. Wood Dale, USA.). for proper identification.

[5] = test system: tilapia Oreochromis sp. larvae; experiment: Growth stimulation of tilapia larvae by immersion; assay type: in vivo; conditions: immersion 100 μg/L, one hour twice a week, three weeks
Description: (§1) Growth stimulation experiments on tilapia Oreochromis sp. larvae were performed evaluating groups of 100 larvae with 0.01 g average, using the peptidic GHS analogs, in a 100 μg/L concentration, twice a week using an immersion time of one hour.

[6] = test system: lysozyme; experiment: Lysozyme levels in tilapia larvae treated by immersion; assay type: in vivo, Oreochromis sp.; conditions: immersion 100 μg/L
Description: as §1
During this experiment lysozyme levels were also monitored and an increase of this immunity marker was obtained in the treated animals as shown in table 8.

[7] = test system: Litopenaeus vanamei; experiment: Growing of shrimp larvae by dipping in solution of the compounds; assay type: in vivo; conditions: four dips of one hour every three days, 0.1 g/L
Description: (§2) Shrimp larvae were subjected two four dips, for one hour every three days with different peptidic GHS analogs at 0.1 g/L. The control group was subjected to the same frequency of dipping with 1 mg/L BSA.

[8] = test system: Litopenaeus vanamei; experiment: Shrimp dipping experiment in production conditions; assay type: in vivo
Description: as §2
This experiment was also performed in production conditions for compounds A221, A228 y A233, with a 20% of higher survival compared with the controls, keeping a stimulation of 110% on the weight and 30% in the size, showing on the treated animals a better homogeneity on the size distribution with only a 30% and a 8% of variation coefficient in weight and size respectively, on contras with a 77% and 30% in the non treated group.

[9] = test system: Post-larvae of Litopenaeus vanamei; experiment: Growth stimulation in shrimps by dietary supplementation; assay type: in vivo; conditions: compound at 1% in post-larvae crustacean diet
Description: The peptidic GHS analogs were included at 1% in a post-larvae crustacean diet. Post-larvae of Litopenaeus vanamei were fed with the aforementioned diet in parallel with a control group with 1% BSA addition. The effect was measured with an optical micrometer and weighing the animals in a 0.1 mg precision scale.

[10] = test system: Litopenaeus vanamei post-larvae; experiment: Growth of shrimp post-larvae fed Artemia-bioencapsulated compounds; assay type: in vivo; conditions: Artemia bioencapsulated (10 mh/L, one hour), fed four times a day for one month
Description: The peptidic GHS analogs were bioencapsulated in Artemia to be fed to Litopenaeus vanamei post-larvae. For the encapsulation the compounds were added in a 10 mh/L left for an hour, harvested and washed. The animals were fed four times a day for one month while the control group was fed with BSA encapsulated Artemia The effect was measured with an optical micrometer and weighing the animals in a 0.1 mg precision scale.

[11] = test system: Doxorubicin induced Dilated Cardiomyopathy; experiment: Prevention of Doxorubicin induced myocardial failure in rats (VEF, forced swimming); assay type: in vivo, Wistar rats; conditions: for ventricular ejection fraction (VEF) with respect to the healthy control: rats, Dx 2 mg/kg 8 weeks plus compound ip 500 μg/Kg, placebo VEF drop about 40%; for survival after forced swimming: Dx treated rats, compound ip 500 μg/Kg, 4° C. water 30 minutes, Dx-saline 45%
Description: To reproduce the physiopathogenic effects of a Dilated Cardiomyopathy (DCM) female Wistar rats of 160 g were treated with 2 mg/kg Doxorubicin (Dx) during 8 weeks. A group of this rats was also treated in parallel with compounds A221, A228 or A233 intraperitoneally at 500 μg/Kg during the 8 weeks of Dx treatment, another Dx treated group was also receiving saline solution as a placebo, and as a healthy control for the experiment another group of untreated Wistar rats of the same age was used. After the 8 week treatment all the rats were tested with an echocardiogram, to test the ventricular functionality and assess the ventricular ejection fraction (VEF).

[12] = test system: Doxorubicin induced Dilated Cardiomyopathy; experiment: Reversion of Doxorubicin induced dilated cardiomyopathy in rats, dose-response; assay type: in vivo, Wistar rats; conditions: rats with Dx induced DCM; for mortality in the group respect to placebo or lower concentrations / total VEF recovery: 50 μg/kg; for DCM reversion two weeks after the treatment: 50 μg/kg to 500 μg/kg; for DCM reversion at 4 weeks of treatment: 100 to 500 μg/kg; for VEF recovery at lower concentrations: doses lower than 50 μg/kg
Description: To assess if there is any dose-response effect and reversion of DCM, Wistar rats were subjected to a treatment with 2 mg/kg of Doxorubicin (Dx) for 8 weeks, after the treatment all rats with a VEF drop higher than 40% were selected, divided in groups of n=8 and treated with different doses of compounds A221, A228 or A233 as follows: • 500 μg/kg, • 250 μg/kg, • 100 μg/kg, • 50 μg/kg, • 25 μg/kg, • 10 μg/kg • Saline Solution.
(FIG. 4, a A221, b A228 and c A233).

[13] = test system: GH release; conditions: McDowell 1995; compared to GHRP-6; cited from earlier work
[14] = differentiated PC12 cells, 72 h incubation, MTT, read-out: IC50 during the NGF deprivation induced neuronal death
[15] = 500 μM hydrogen peroxide, rat cerebellum granular cells, read-out: IC50 during the induced neuronal damage by Hydrogen Peroxide addition to a primary culture of neurons

Compound	Normalized IGF-I mRNA levels to a non related synthetic peptide control group [3]	Weight Inc. (%), control group growing = 100% [4] [%]	Weight Inc. (%), control group growing = 100% [5] [%]	Lysozyme levels of the treated animals relative to the control group [6]	Size Inc. (%), control group growing = 100% [7] [%]	Weight Inc. (%), control group growing = 100% [7] [%]	higher survival compared with the controls [8] [%]	stimulation in the size [8] [%]	stimulation on the weight [8] [%]	Size Inc. (%), control group growing = 100% [9] [%]	Size Inc. (%), control group growing = 100% [10] [%]	ventricular ejection fraction (VEF) with respect to the healthy control [11]	mortality in the group respect to placebo or lower concentrations [12]	total VEF recovery [12]	DCM reversion two weeks after the treatment [12]	DCM reversion at 4 weeks of treatment [12]	VEF recovery at lower concentrations [12]	IC50 [1, 14] [µM]	IC50 [2, 15] [µM]	survival after forced swimming [11] [%]	other results
NCC(=O)N[C@@H](CO)C(=O)N[C@H]1CCCCNC(=O)C[C@@H](C(=O)N[C@@H](CO)C(=O)N2CCC[C@H]2C(=O)N[C@@H](CCC(=O)O)C(=O)N[C@@H](Cc2c[nH]cn2)C(=O)N[C@@H](CCC(N)=O)C(=O)O)NC(=O)[C@H](Cc2ccccc2)NC1=O [Compound A221, GSKFDSPEHQ] (H-GSKFDSPEHQ-OH; lactam 3-5; N-terminus and C-terminus assumed)	1.32	98.0	97.0	1.01	112.0	120.1	20	30	110	130.0	130.2	slightly modified VEF	somehow effective to reduce mortality	not effective for the total VEF recovery	partially reverts DCM	DCM reversion is complete	do not recovered VEF	–	–	–	IC50 ([1]; 72 h): 2.02 µM; IC50 [2]: 1.8 µM
GKFDLSPEHQ [Compound A233, L-amino acid peptide with internal side-chain cycle, SEC; ID NO: 13]	1.69	165.0	155.0	2.68	124.9	143.0	20	30	110	140.1	140.0	slightly modified VEF	somehow effective to reduce mortality	not effective for the total VEF recovery	partially reverts DCM	DCM reversion is complete	do not recovered VEF	5	3.56	100	–
GKFGDLSPEHQ [Compound A228, L-amino acid peptide with internal side-chain cycle, SEC; ID NO: 8]	1.18	130.6	132.0	1.08	118.9	128.2	20	30	110	140.0	140.0	slightly modified VEF	somehow effective to reduce mortality	not effective for the total VEF recovery	partially reverts DCM	DCM reversion is complete	do not recovered VEF	3.99	1.77	100	–
[dK][d2Nal]AW[dF]EK-NH2	–	–	–	–	–	–	–	–	–	–	–	–	–	–	–	–	–	–	–	–	fold increased activity in vitro [13]: 10 fold
